Reference: patent publication US20120220453A1, “PESTICIDAL COMPOSTIONS AND PROCESSES RELATED THERETO” (priority 2011, published 2012)
Like-named read-outs stand apart in the source and are kept apart here.

How the values were obtained:
Format in all cases: in vivo
[1] = system: Green Peach Aphid (GPA) (Myzus persicae); experiment: Bioassay on Green Peach Aphid (GPA), foliar spray on cabbage seedlings; details: 72 h, 200 ppm foliar spray on cabbage seedlings, graded after three days, Abbott corrected % control, read-out: GPA @ 200 ppm, % Control (or Mortality) rating
Protocol: Certain molecules disclosed in this document were tested against GPA using procedures described in the following example. In the reporting of the results, the “Table 4: GPA, Scale and WF Rating Table” was used (See Table Section).
Cabbage seedlings grown in 3-inch pots, with 2-3 small (3-5 cm) true leaves, were used as test substrate. The seedlings were infested with 20-50 GPA (wingless adult and nymph stages) one day prior to chemical application. Four pots with individual seedlings were used for each treatment. Test compounds (2 mg) were dissolved in 2 mL of acetone/methanol (1:1) solvent, forming stock solutions of 1000 ppm test compound. The stock solutions were diluted 5× with 0.025% Tween 20 in H2O to obtain the solution at 200 ppm test compound. A hand-held aspirator-type sprayer was used for spraying a solution to both sides of […] leaves until runoff. Reference plants (solvent check) were sprayed with the diluent only containing 20% by volume of acetone/methanol (1:1) solvent. Treated plants were held in a holding room for three days at approximately 25° C. and ambient relative humidity (RH) prior to grading. Evaluation was conducted by counting the number of live aphids per plant under a microscope. Percent Control was measured by using Abbott's correction formula (W. S. Abbott, “A Method of Computing the Effectiveness of an Insecticide” J. Econ. Entomol. 18 (1925), pp. 265-267) as follows.
Corrected % Control=100*(X−Y)/X • where • X=No. of live aphids on solvent check plants and • Y=No. of live aphids on treated plants
(§1) The results are indicated in the table entitled “Table 5: BAW, CEW, GPA, Scale and WF Results” (See Table Section).

[2] = system: Beet Armyworm (BAW) (Spodoptera exigua); experiment: Bioassay on Beet Armyworm (BAW), 128-well diet tray assay; details: 120 h
Protocol: Certain molecules disclosed in this document were tested against BAW and CEW using procedures described in the following examples. In the reporting of the results, the “Table 3: BAW & CEW Rating Table” was used (See Table Section).
Bioassays on BAW (Spodoptera exigua)
Bioassays on BAW were conducted using a 128-well diet tray assay. […] Trays were covered with a clear self-adhesive cover, and held at 25° C., 14:10 light-dark for five days. Percent mortality was recorded for the larvae in each well; activity in the eight wells was then averaged. The results are indicated in the table entitled “Table 5: BAW, CEW, GPA, Scale and WF Results” (See Table Section).

[3] = system: San Jose Scale (Quadraspidiotus perniciosus); experiment: Bioassay on San Jose Scale, foliar spray on cotton plants; details: Diaspidiotus perniciosus, 216 h; 200 ppm foliar spray on cotton plants, live nymphs counted 9 days after infestation, Abbott corrected % control; read-out: Scale @ 200 ppm, % Control (or Mortality) rating
Protocol: Certain molecules disclosed in this document were tested against Scale using procedures described in the following example. In the reporting of the results, the “Table 4: GPA, Scale and WF Rating Table” was used (See Table Section).
Cotton plants (Gossypium hirsutum) grown in 3-inch pots, with 1 small (4-5 cm) true leaves, were used as test substrate. The plants were infested with 200-400 scale crawlers 1-2 hours after chemical application. Four pots with individual plants were used for each treatment. Test compounds (2 mg) were dissolved in 1 mL of acetone solvent, forming stock solutions of 2000 ppm test compound. The stock solutions were diluted 10× with 0.025% Tween 20 in H2O (diluents) to obtain the solution at 200 ppm test compound. A hand-held aspirator-type sprayer was used for spraying a solution to both sides of cotton leaves until runoff. Reference plants (solvent check) were sprayed with the diluent only containing 10% by volume of acetone solvent. Treated plants were held in a holding room for three days at approximately 25° C. and ambient relative humidity (RH) prior to grading. Evaluation was conducted by counting the number of live 2-3 nymphal stage per plant under a microscope 9 days after infestation. Percent Control was measured by using Abbott's correction formula (W. S. Abbott, “A Method of Computing the Effectiveness of an Insecticide” J. Econ. Entomol. 18 (1925), pp. 265-267) as follows.
Corrected % Control=100*(X−Y)/X • where • X=No. of live nymphs on solvent check plants and • Y=No. of live nymphs on treated plants
as §1

[4] = system: Sweet Potato Whitefly (WF) (Bemisia tabaci); experiment: Bioassay on Sweet Potato Whitefly (WF), foliar spray on cotton plants; details: 216 h, 200 ppm foliar spray on cotton plants, graded after 9 days, Abbott corrected % control, read-out: WF @ 200 ppm, % Control (or Mortality) rating
Protocol: Certain molecules disclosed in this document were tested against WF using procedures described in the following example. In the reporting of the results, the “Table 4: GPA, Scale and WF Rating Table” was used (See Table Section).
Cotton plants (Gossypium hirsutum) grown in 3-inch pots, with 1 small (4-5 cm) true leaves, were used as test substrate. The plants were infested with 200-400 whitefly eggs 4-5 days prior to chemical application. Four pots with individual plants were used for each treatment. Test compounds (2 mg) were dissolved in 1 mL of acetone solvent, forming stock solutions of 2000 ppm test compound. The stock solutions were diluted 10× with 0.025% Tween 20 in H2O (diluents) to obtain the solution at 200 ppm test compound. A hand-held aspirator-type sprayer was used for spraying a solution to both sides of cotton leaves until runoff. Reference plants (solvent check) were sprayed with the diluent only containing 10% by volume of acetone solvent. Treated plants were held in a holding room for 9 days at approximately 25° C. and ambient relative humidity (RH) prior to grading. Evaluation was conducted by counting the number of live 3-4 nymphal stage per plant under a microscope. Percent Control was measured by using Abbott's correction formula (W. S. Abbott, “A Method of Computing the Effectiveness of an Insecticide” J. Econ. Entomol. 18 (1925), pp. 265-267) as follows.
Corrected % Control=100*(X−Y)/X • where • X=No. of live nymphs on solvent check plants and • Y=No. of live nymphs on treated plants.
as §1

[5] = second instar larvae on treated artificial diet, five days, 25° C., read-out: BAW, % Control (or Mortality) rating

Compound: Fc1cncc(-n2cc(-c3cccc(C(F)(F)F)n3)c(Cl)n2)c1 [Compound 7]
- mortality at 200 ppm [1]: 80 to 100%
- mortality [2, 5]: 50 to 100%
- mortality at 200 ppm [3]: 80 to 100%

Compound: Cc1nn(-c2cccnc2)cc1-c1cccnc1 [Compound 23]
- mortality at 200 ppm [1]: 80 to 100%
- mortality at 200 ppm [4]: 0 to 80%
- mortality [2, 5]: 50 to 100%
- mortality at 200 ppm [3]: 80 to 100%

Compound: Cc1ccc(-c2cn(-c3cccnc3)nc2C)cn1 [Compound 26]
- mortality at 200 ppm [1]: 80 to 100%
- mortality at 200 ppm [4]: 80 to 100%
- mortality [2, 5]: 50 to 100%
- mortality at 200 ppm [3]: 80 to 100%

Compound: COc1ccc(-c2cn(-c3cccnc3)nc2C)cn1 [Compound 25]
- mortality at 200 ppm [1]: 80 to 100%
- mortality at 200 ppm [4]: 0 to 80%
- mortality [2, 5]: 50 to 100%
- mortality at 200 ppm [3]: 80 to 100%

Compound: Cc1ncccc1-c1cn(-c2cccnc2)nc1C [Compound 28]
- mortality at 200 ppm [1]: 80 to 100%
- mortality at 200 ppm [4]: 0 to 80%
- mortality [2, 5]: 50 to 100%
- mortality at 200 ppm [3]: 80 to 100%

Compound: CSc1cccc(-c2cn(-c3cccnc3)nc2C)c1 [Compound 17, 3-(3-methyl-4-(3-(methylthio)phenyl)-1H-pyrazol-1-yl)pyridine]
- mortality at 200 ppm [1]: 80 to 100%
- mortality at 200 ppm [4]: 0%
- mortality [2, 5]: 50 to 100%
- mortality at 200 ppm [3]: 0 to 80%

Compound: Cc1nn(-c2cccnc2)cc1-c1ccnc(C(F)(F)F)n1 [Compound 5]
- mortality at 200 ppm [1]: 80 to 100%
- mortality [2, 5]: 50 to 100%
- mortality at 200 ppm [3]: 80 to 100%

Compound: Cc1cc(-c2cn(-c3cccnc3)nc2C)ccn1 [Compound 30]
- mortality at 200 ppm [1]: 80 to 100%
- mortality at 200 ppm [4]: 0 to 80%
- mortality [2, 5]: 50 to 100%
- mortality at 200 ppm [3]: 0 to 80%

Compound: FC(F)(F)c1cccc(-c2cnn(-c3cccnc3)c2)n1 [Compound 1, 2-(1-(pyridin-3-yl)-1H-pyrazol-4-yl)-6-(trifluoromethyl)pyridine]
- mortality at 200 ppm [1]: 80 to 100%
- mortality at 200 ppm [4]: 0 to 80%
- mortality ([2]; read-out: BAW, % Control (or Mortality) rating): 50 to 100%
- mortality at 200 ppm [3]: 80 to 100%

Compound: Cc1nn(-c2cccnc2)cc1-c1cc(C(F)(F)F)ccn1 [Compound 22]
- mortality at 200 ppm [1]: 80 to 100%
- mortality at 200 ppm [4]: 80 to 100%
- mortality [2, 5]: 50 to 100%
- mortality at 200 ppm [3]: 80 to 100%

Compound: Cc1nn(-c2cccnc2)cc1-c1cc(C(F)(F)F)ncn1 [Compound 10]
- mortality at 200 ppm [1]: 80 to 100%
- mortality [2, 5]: 50 to 100%
- mortality at 200 ppm [3]: 80 to 100%

Compound: Cc1nn(-c2cccnc2)cc1-c1cccc(C(F)(F)F)n1 [Compound 4]
- mortality at 200 ppm [1]: 80 to 100%
- mortality [2, 5]: 50 to 100%
- mortality at 200 ppm [3]: 80 to 100%

Compound: CSc1nc(-c2cn(-c3cccnc3)nc2C)cc(C(F)(F)F)n1 [Compound 13]
- mortality at 200 ppm [1]: 0 to 80%
- mortality [2, 5]: 50 to 100%
- mortality at 200 ppm [3]: 0 to 80%

Compound: COc1cc(-c2cn(-c3cccnc3)nc2C)nc(OC)n1 [Compound 12]
- mortality at 200 ppm [1]: 80 to 100%
- mortality [2, 5]: 50 to 100%
- mortality at 200 ppm [3]: 0 to 80%

Compound: Cc1nn(-c2cncc(F)c2)cc1-c1cccc(C(F)(F)F)n1 [Compound 3, 2-(1-(5-fluoropyridin-3-yl)-3-methyl-1H-pyrazol-4-yl)-6-(trifluoromethyl)pyridine]
- mortality at 200 ppm [1]: 80 to 100%
- mortality [2, 5]: 50 to 100%
- mortality at 200 ppm [3]: 80 to 100%

Compound: COc1cccc(-c2cn(-c3cccnc3)nc2C)n1 [Compound 19]
- mortality at 200 ppm [1]: 80 to 100%
- mortality at 200 ppm [4]: 0 to 80%
- mortality [2, 5]: 50 to 100%
- mortality at 200 ppm [3]: 80 to 100%

Compound: Cc1nn(-c2cccnc2)cc1-c1ccc(C(F)(F)F)cn1 [Compound 21]
- mortality at 200 ppm [1]: 80 to 100%
- mortality at 200 ppm [4]: 80 to 100%
- mortality [2, 5]: 50 to 100%
- mortality at 200 ppm [3]: 80 to 100%

Compound: Cc1nccc(-c2cn(-c3cccnc3)nc2C)n1 [Compound 8]
- mortality at 200 ppm [1]: 80 to 100%
- mortality [2, 5]: 50 to 100%
- mortality at 200 ppm [3]: 80 to 100%

Compound: FC(F)(F)c1ccc(-c2cnn(-c3cccnc3)c2)cn1 [Compound 2, 5-(1-(pyridin-3-yl)-1H-pyrazol-4-yl)-2-(trifluoromethyl)pyridine]
- mortality at 200 ppm [1]: 80 to 100%
- mortality [2, 5]: 50 to 100%
- mortality at 200 ppm [3]: 0%

Compound: Cc1cncc(-c2cn(-c3cccnc3)nc2C)c1 [Compound 27]
- mortality at 200 ppm [1]: 80 to 100%
- mortality at 200 ppm [4]: 80 to 100%
- mortality [2, 5]: 50 to 100%
- mortality at 200 ppm [3]: 0 to 80%

Compound: Cc1nn(-c2cccnc2)cc1-c1ccc(C(F)(F)F)nc1 [Compound 29]
- mortality at 200 ppm [1]: 80 to 100%
- mortality at 200 ppm [4]: 80 to 100%
- mortality [2, 5]: 50 to 100%
- mortality at 200 ppm [3]: 80 to 100%

Compound: COc1cc(-c2cn(-c3cccnc3)nc2C)ncn1 [Compound 11]
- mortality at 200 ppm [1]: 80 to 100%
- mortality ([2]; 200 ppm, second instar larvae on treated artificial diet, five days, 25° C., read-out: BAW @ 200 ppm, % Control (or Mortality) rating): 50 to 100%
- mortality at 200 ppm [3]: 0 to 80%

Compound: COc1ccnc(-c2cn(-c3cccnc3)nc2C)n1 [Compound 9]
- mortality at 200 ppm [1]: 80 to 100%
- mortality [2, 5]: 50 to 100%
- mortality at 200 ppm [3]: 80 to 100%
